Literature values, collected in patent publication US20130312498A1, “CARDIOVASCULAR DISEASE RISK ASSESSMENT AND TREATMENT BY STEROL AND/OR STANOL MARKERS” (FOUNDATION FOR HEALTH IMPROVEMENT AND TECHNOLOGY, priority 2012, published 2013).

Key:
[1] = molecular target: T1, NPC1L1/AP2-clathrin complex (Homo sapiens, UniProt Q9UHC9); conditions: typical effect, intestinal sterol absorption
T1 construct: from tissue; host or cells: intestinal epithelium (in vivo, patients)
T1 sequence (Q9UHC9 22-1359): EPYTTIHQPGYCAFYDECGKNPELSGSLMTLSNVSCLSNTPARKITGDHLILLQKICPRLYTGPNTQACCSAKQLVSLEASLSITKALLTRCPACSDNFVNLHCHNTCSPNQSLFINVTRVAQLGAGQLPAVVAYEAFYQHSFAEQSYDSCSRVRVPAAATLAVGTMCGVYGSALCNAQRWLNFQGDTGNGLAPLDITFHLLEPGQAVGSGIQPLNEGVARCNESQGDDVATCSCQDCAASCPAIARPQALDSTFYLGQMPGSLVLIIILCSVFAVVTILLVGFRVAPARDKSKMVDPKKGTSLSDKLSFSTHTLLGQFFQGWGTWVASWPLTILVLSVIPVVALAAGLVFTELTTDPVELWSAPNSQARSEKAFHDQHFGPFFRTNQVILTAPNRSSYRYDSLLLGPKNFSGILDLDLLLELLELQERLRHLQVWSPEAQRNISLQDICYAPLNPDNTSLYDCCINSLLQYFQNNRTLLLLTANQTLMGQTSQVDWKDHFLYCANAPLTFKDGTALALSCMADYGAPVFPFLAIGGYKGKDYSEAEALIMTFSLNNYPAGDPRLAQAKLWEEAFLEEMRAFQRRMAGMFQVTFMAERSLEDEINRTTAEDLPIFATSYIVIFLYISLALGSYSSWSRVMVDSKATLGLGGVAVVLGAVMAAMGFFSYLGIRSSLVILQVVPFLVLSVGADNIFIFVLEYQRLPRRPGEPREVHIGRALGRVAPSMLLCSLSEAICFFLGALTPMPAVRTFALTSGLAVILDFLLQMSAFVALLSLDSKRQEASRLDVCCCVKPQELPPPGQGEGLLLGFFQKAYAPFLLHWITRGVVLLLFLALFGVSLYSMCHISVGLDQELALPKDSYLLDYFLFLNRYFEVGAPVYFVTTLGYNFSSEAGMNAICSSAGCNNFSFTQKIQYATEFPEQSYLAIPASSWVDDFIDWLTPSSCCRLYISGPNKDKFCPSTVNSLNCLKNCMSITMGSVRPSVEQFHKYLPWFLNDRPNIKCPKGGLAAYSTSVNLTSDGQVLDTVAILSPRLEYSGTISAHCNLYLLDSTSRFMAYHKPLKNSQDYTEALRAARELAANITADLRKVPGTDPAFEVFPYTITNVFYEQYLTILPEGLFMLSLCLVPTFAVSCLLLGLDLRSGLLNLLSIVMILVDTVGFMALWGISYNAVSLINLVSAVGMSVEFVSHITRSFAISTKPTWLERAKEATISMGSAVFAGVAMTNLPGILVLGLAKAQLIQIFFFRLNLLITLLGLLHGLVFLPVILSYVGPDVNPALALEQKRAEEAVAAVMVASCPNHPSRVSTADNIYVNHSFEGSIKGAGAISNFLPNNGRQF

fatty acid absorption = conditions: in vivo

## O=C1[C@H](CC[C@H](O)c2ccc(F)cc2)[C@@H](c2ccc(O)cc2)N1c1ccc(F)cc1 [Ezetimibe]
[1]
  reduction of sterol absorption: about 50%
Fatty acid absorption
  effect on fatty acid absorption: no effect
